# According to patent publication US11655468B2, “Methods and compositions of chemically modified phage libraries” (priority 2018, dated 2023):
# Entries after “also recorded” stand apart in the source; their conditions may differ. Like-named read-outs stand apart in the source and are kept apart here. Non-standard residues stand in square brackets, D forms with d. Residues, ends and D or L forms follow the SMILES beside them. *: point of attachment. X2 = O=C1OC2(c3ccc(C(=O)*)cc31)c1cc(Br)c(O)c(Br)c1Oc1c2cc(Br)c(O)c1Br; 5FAM = O=C1OC2(c3ccc(O)cc3Oc3cc(O)ccc32)c2ccc(C(=O)*)cc21; X1 = CC(=O)c1ccc(OCCCNC(=O)C*)cc1B(O)O; Dap = NC[C@H](N)C(=O)O
# How the values were obtained:
# S. aureus [1] = assay: Flow cytometry analysis of S. aureus staining by FAM-labeled peptides; format: cell-based, S. aureus (ATCC 6538); conditions: for S. aureus staining of control peptides: 1 μM peptide, 1 mg/mL BSA (FIG. 2C)
# Protocol: (§1) Each bacterial strain was grown to an OD600˜0.5, washed and diluted with PBS (pH 7.4). The cells (˜1×10^7 cfu/mL) were incubated with various concentrations of FAM-labeled peptide with or without BSA in PBS. After incubation for 1 hour, samples were subjected to cytometric analysis. Data obtained was analyzed via BD FACSDiva software and median fluorescent values were computed from the generated histograms. All flow cytometry experiments were repeated and generated consistent results (see FIG. 14).
# A. baumannii (LOS−) [2] = assay: Flow cytometry analysis of A. baumannii (LOS−) staining; format: cell-based, A. baumannii (AB5075 LOS−); conditions: for binding of negative controls to A. baumannii (LOS−) compared with KAM8: 1 μM, 1 mg/mL BSA (FIG. 21B)
# Protocol: as §1
# A. baumannii (LOS−) [3] = assay: Fluorescence microscopy of A. baumannii (LOS−) staining; format: cell-based, A. baumannii (AB5075 LOS−); conditions: TAMRA labeled peptide, 2 μM
# Protocol: (§2) Each bacterial strain was grown to an OD600˜1.0, washed and diluted with PBS (pH 7.4). The cells (˜1×10^9 cfu/mL) were incubated with various concentrations of TAMRA-labeled peptide with or without BSA in PBS for 1 hour. The same microscopy procedure described was implemented using filter set 20 HE (excitation: BP 546/12, emission: BP 607/80) suitable for detection of TAMRA fluorescence and images were processed consistently using ImageJ software.
# [4] = system: wild type A. baumannii (LOS+); assay: Fluorescence microscopy and flow cytometry of wild type A. baumannii (LOS+) staining; format: cell-based, A. baumannii (AB5075); conditions: microscopy, same conditions as LOS− strain (legend FIG. 5B: 10 μM for LOS+)
# Protocol: as §1, §2
# S. aureus [5] = assay: Fluorescence microscopy of S. aureus staining by TAMRA-labeled peptides; format: cell-based, S. aureus (ATCC 6538)
# Protocol: as §2
# Escherichia coli = assay: Flow cytometry and fluorescence microscopy of E. coli staining; format: cell-based
# Protocol: as §1, §2
# LOS− A. baumannii = assay: Photoinactivation of bacteria, A. baumannii (LOS−); format: cell-based, A. baumannii (AB5075 LOS−); conditions: for A. baumannii (LOS−) cell death by controls: at these concentrations, photoirradiation (FIG. 5C)
# Protocol: (§3) Each bacterial strain was grown to an OD600˜0.7, washed and diluted with PBS (pH 7.4). The cells (˜1×10^8 cfu/mL) were incubated with eosin-conjugated peptides and various controls for 15 minutes. Half of the bacterial suspension was removed and placed in a 96-well plate (Corning 3595). The well was subjected to photoirradiation on the Zeiss microscope using the 20× objective and fluorescein filter to emit blue light for 15 minutes. Cells were diluted in LB media, spread on LB agar plates and incubated overnight at 37° C. The A. baumannii (LOS−) strain was spread on LB agar (+10 μg/mL polymyxin b) and incubated for 24 hours. The amount of cell killing was calculated by comparing the amount of colonies of treated bacteria to an untreated PBS control. All experiments were repeated and the average cell killing of two trials was plotted.
# Jurkat cells = conditions: MTT, 24 hrs, with or without photoirradiation
# Protocol: Jurkat cells were cultured in RPMI 1640 (containing 10% FBS, 2 mM glutamine, 1% Penicillin/Streptomycin) and maintained at 5×10^5 cells/mL. Cells were diluted in RPMI and distributed to a 96-well plate (Corning 3595) at 50,000 cells/well (200 μL/well). […] A positive control for viability of DMSO treated cells along with a positive control for cytotoxicity of camptothecin at 50 μM (5 mM DMSO stock) were included. For photoirradiation, the cells were incubated with the compound of interest for 15 minutes, each well was irradiated for 15 minutes (see photoinactivation protocol-paragraph 0053) and the plate was returned to the incubator for the remainder of the 24 hour incubation. Cells were centrifuged for 5 minutes (180 rcf) and the supernatant culture medium was carefully removed. 100 μL of 3-(4,5-dimethylthiazol-2-yl)-2,5-diphenyltetrazolium bromide (MTT, 0.5 mg/mL in RPMI) was added to each well and incubated for 4 hours followed by the addition of 10% SDS in 0.01 M HCl (100 μL) and incubation overnight.
# (§5) All incubations were performed at 37° C. and 5% CO2. Absorbance readings were measured at 570 nm and cell viability was normalized to the DMSO control as an average of three trials for non-irradiated samples and an average of two trials for photoirradiated samples with standard deviations.
# HEK293T cells = conditions: MTT, 24 hrs, with or without photoirradiation
# Protocol: HEK293T cells were grown in complete DMEM (containing 10% FBS, 2 mM glutamine and 1% Penicillin/Streptomycin) to about 80% confluency in a 150 mm dish. Cells were removed from the plate with 0.25% trypsin protease solution (containing EDTA) at 37° C. for 5 minutes and pelleted (3,500 rpm, 5 minutes). Cells were diluted in DMEM, distributed to a 96-well plate (Corning 3595) at 30,000 cells/well (100 μL/well) and incubated for 24 hours to allow for cell adherence. 1 μL of 100× DMSO solutions were added to each well and incubations/photoirradiation were performed as described above. After 24 hours, the supernatant culture medium was carefully removed and the cells were incubated with 100 μL MTT (0.5 mg/mL in RPMI) for 4 hours followed by the addition of 10% SDS in 0.01 M HCl (100 μL) and incubation overnight.
# as §5
# MRSA = assay: Photoinactivation of bacteria, MRSA; format: cell-based, S. aureus (ATCC 43300); conditions: same experimental conditions, photoirradiation (FIG. 19)
# Protocol: as §3
# S. aureus [6] = format: cell-based, S. aureus (ATCC 6538); conditions: for S. aureus cell death by controls: 1 μM and 2 μM, photoirradiation
# Protocol: as §3
# B. subtilis = assay: Photoinactivation of bacteria, B. subtilis; format: cell-based; conditions: 2 μM peptide followed by photoirradiation
# Protocol: as §3
# E. coli = assay: Photoinactivation of bacteria, E. coli; format: cell-based; conditions: 2 μM peptide followed by photoirradiation
# Protocol: as §3
# [7] = Aggregation of peptide in flow cytometry samples; format: physicochemical; conditions: concentrations higher than 3 μM
# Bacillus subtilis = assay: Flow cytometry and fluorescence microscopy of B. subtilis staining; format: cell-based; conditions: up to 10 μM peptide; flow cytometry with 1 mg/mL BSA and microscopy
# Protocol: as §1, §2
# BSA = BSA (Bos taurus, UniProt P02769); assay: Fluorescence anisotropy protein binding (BSA); set-up: species or system bovine; conditions: 500 nM peptide, PBS pH 7.4, 1 hour, high protein concentrations
# Protocol: (§4) (A) Flow cytometry comparison of HSA and BSA in enhancing KAM5 binding to S. aureus. (B) Assessing protein binding of KAM5 using fluorescence anisotropy, for which various concentrations of BSA or HSA were delivered to a 96-well plate (Corning 3603) in PBS (pH 7.4). Peptide was added at a final concentration of 500 nM and incubated for 1 hour. Anisotropy values were measured (Ex: 495 nm, Em: 532 nm) and plotted as an average of three trials with standard deviations. Fluorescein was used as a negative control. The results clearly show binding of KAM5 to these serum proteins.
# [8] = system: methicillin-resistant strain of S. aureus (ATCC 43300); assay: Fluorescence microscopy of MRSA staining by TAMRA-labeled peptide; format: cell-based; conditions: 2 μM (FIG. 17)
# Protocol: as §2
# HSA = HSA (Homo sapiens, UniProt P02768); assay: Fluorescence anisotropy protein binding (HSA); conditions: 500 nM peptide, PBS pH 7.4, 1 hour, high protein concentrations
# Protocol: as §4
# [9] = system: wild-type (LOS+) A. baumannii; assay: Photoinactivation of bacteria, A. baumannii (LOS+); format: cell-based, A. baumannii (AB5075); conditions: same conditions, 2 μM, photoirradiation (FIG. 5D)
# Protocol: as §3
# HSA, sequence (P02768 25-609): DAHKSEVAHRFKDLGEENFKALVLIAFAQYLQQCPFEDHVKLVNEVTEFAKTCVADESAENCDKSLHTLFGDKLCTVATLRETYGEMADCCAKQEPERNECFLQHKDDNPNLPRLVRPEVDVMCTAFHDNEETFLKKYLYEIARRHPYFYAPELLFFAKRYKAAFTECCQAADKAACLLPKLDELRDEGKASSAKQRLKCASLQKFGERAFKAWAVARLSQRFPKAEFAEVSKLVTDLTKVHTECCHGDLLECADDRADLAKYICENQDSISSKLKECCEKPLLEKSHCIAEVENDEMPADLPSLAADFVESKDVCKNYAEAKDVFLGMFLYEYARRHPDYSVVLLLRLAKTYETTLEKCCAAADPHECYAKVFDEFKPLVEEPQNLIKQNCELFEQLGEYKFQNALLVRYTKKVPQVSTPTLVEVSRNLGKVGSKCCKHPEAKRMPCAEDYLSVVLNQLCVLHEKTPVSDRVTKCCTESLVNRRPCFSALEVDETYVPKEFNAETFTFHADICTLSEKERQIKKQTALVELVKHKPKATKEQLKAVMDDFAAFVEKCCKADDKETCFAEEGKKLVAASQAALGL
molecule,measurement,setting,value
ACmGPTAKYICmGGGDap* [KAM6],S. aureus staining of control peptides,S. aureus [1]; flow cytometry,no bacterial staining
same,binding of negative controls to A. baumannii (LOS−) compared with KAM8,A. baumannii (LOS−) [2],much reduced binding
ACVSPRSHECGGGDap* [KAM5-Cyclic],S. aureus staining of control peptides,S. aureus [1]; flow cytometry,little S. aureus staining
"CC(=O)c1ccc(OCCCNC(=O)CSC[C@H](NC(=O)[C@H](C)N)C(=O)N[C@H](C(=O)N[C@@H](CC(C)C)C(=O)N2CCC[C@H]2C(=O)N[C@@H](CC(N)=O)C(=O)NCC(=O)N2CCC[C@H]2C(=O)N[C@@H](CCCNC(=N)N)C(=O)N[C@@H](CSCC(=O)NCCCOc2ccc(C(C)=O)c(B(O)O)c2)C(=O)NCC(=O)NCC(=O)NCC(=O)N[C@@H](CNC(=O)c2ccc3c(c2)C(=O)OC32c3ccc(O)cc3Oc3cc(O)ccc32)C(N)=O)[C@@H](C)O)cc1B(O)O [KAM8, ACmTLPNGPRCmGGGDap*] (H-AC(X1)TLPNGPRC(X1)GGG[Dap](5FAM)-NH2; N-terminus assumed)",fluorescence staining of LOS− A. baumannii,A. baumannii (LOS−) [3],bright fluorescence staining
same,fluorescence staining of wild type A. baumannii (LOS+),[4],little fluorescence staining
same,binding to S. aureus,"S. aureus [5]; TAMRA labeled peptide, 2 μM, 1 mg/mL BSA (FIG. 22)",no binding
same,binding to E. coli,"Escherichia coli; microscopy, TAMRA labeled peptide, 2 μM, 1 mg/mL BSA (FIG. 22)",no binding
same,effect of BSA on binding to A. baumannii (LOS−),A. baumannii (LOS−) [2]; 1 mg/mL BSA,enhanced bacterial staining
same,A. baumannii (LOS−) cell death by controls,LOS− A. baumannii,did not elicit A. baumannii cell death
"CC(=O)c1ccc(OCCCNC(=O)CSC[C@H](NC(=O)[C@H](C)N)C(=O)N[C@H](C(=O)N[C@@H](CO)C(=O)N2CCC[C@H]2C(=O)N[C@@H](CCCNC(=N)N)C(=O)N[C@@H](CO)C(=O)N[C@@H](Cc2c[nH]cn2)C(=O)N[C@@H](CCC(=O)O)C(=O)N[C@@H](CSCC(=O)NCCCOc2ccc(C(C)=O)c(B(O)O)c2)C(=O)NCC(=O)NCC(=O)NCC(=O)N[C@@H](CNC(=O)c2ccc3c(c2)C(=O)OC32c3cc(Br)c(O)c(Br)c3Oc3c2cc(Br)c(O)c3Br)C(N)=O)C(C)C)cc1B(O)O [KAM5-Eosin, ACmVSPRSHECmGGGDap*] (H-AC(X1)VSPRSHEC(X1)GGG[Dap](X2)-NH2; N-terminus assumed)","mammalian cell toxicity, Jurkat cells",Jurkat cells,no mammalian cell toxicity
same,"mammalian cell toxicity, HEK 293T cells",HEK293T cells,no mammalian cell toxicity
same,cell killing of MRSA compared with S. aureus strain used in selection,MRSA,comparable percentage of cell killing; also recorded: comparable potency
same,cell killing of S. aureus,S. aureus [6]; 1 μM,74%
same,cell killing of S. aureus,S. aureus [6]; 2 μM,92%
same,cell death of B. subtilis,B. subtilis,no significant cell death
same,cell death of E. coli,E. coli,no significant cell death
ACTLPNGPRCGGGDap* [KAM8-Cyclic],binding of negative controls to A. baumannii (LOS−) compared with KAM8,A. baumannii (LOS−) [2],much reduced binding
ACAKIFTGCCGGGDap* [KAM14],aggregation,[7],aggregation at higher concentrations
"CC(=O)c1ccc(OCCCNC(=O)CSC[C@H](NC(=O)[C@H](C)N)C(=O)N[C@H](C(=O)N[C@@H](CO)C(=O)N2CCC[C@H]2C(=O)N[C@@H](CCCNC(=N)N)C(=O)N[C@@H](CO)C(=O)N[C@@H](Cc2c[nH]cn2)C(=O)N[C@@H](CCC(=O)O)C(=O)N[C@@H](CSCC(=O)NCCCOc2ccc(C(C)=O)c(B(O)O)c2)C(=O)NCC(=O)NCC(=O)NCC(=O)N[C@@H](CNC(=O)c2ccc3c(c2)C(=O)OC32c3ccc(O)cc3Oc3cc(O)ccc32)C(N)=O)C(C)C)cc1B(O)O [KAM5, ACmVSPRSHECmGGGDap*] (H-AC(X1)VSPRSHEC(X1)GGG[Dap](5FAM)-NH2; N-terminus assumed)",S. aureus cell death by controls,S. aureus [6],did not elicit cell death
same,potency for labeling S. aureus cells compared with KAM14-17,S. aureus [1]; flow cytometry (FIG. 18),superior potency
same,S. aureus binding potency compared with Hlys-AB1,"S. aureus [1]; flow cytometry, 1 mg/mL BSA (FIG. 15)",much greater than that of Hlys-AB1
same,effect of BSA addition on S. aureus staining,"S. aureus [5]; 2 μM peptide, BSA up to 10 mg/mL",did not inhibit
same,fluorescence staining of S. aureus cells,"S. aureus [5]; TAMRA labeled peptide, 2 μM",strong fluorescence staining
same,staining of B. subtilis,Bacillus subtilis,negligible staining
same,binding to BSA,BSA,did show binding
same,staining of methicillin-resistant S. aureus compared with strain used in phage display,[8],equally potent staining
same,staining of E. coli,"Escherichia coli; up to 10 μM peptide, flow cytometry with 1 mg/mL BSA and microscopy",negligible staining
same,binding to HSA,HSA,did show binding
ACmTLPNGPRCmGGGDap* [KAM8-Eosin],killing of wild-type (LOS+) A. baumannii,[9],little killing
same,cell killing of LOS− A. baumannii,LOS− A. baumannii; 15 min light,> 90%
"O=C1OC2(c3ccccc31)c1cc(Br)c(O)c(Br)c1Oc1c2cc(Br)c(O)c1Br [eosin, reference compound]",S. aureus cell death by controls,S. aureus [6],did not elicit cell death
same,A. baumannii (LOS−) cell death by controls,LOS− A. baumannii,did not elicit A. baumannii cell death
